In PubChem BioAssay (NCI) one finds TGI data, which are given here for 13 molecules.

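Exposure lasted 48 hours, with cells grown in 96-well plates and compounds tested at five concentrations. Definition used: TGI = concentration required for complete inhibition of growth.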

Among the test systems are ACHN renal; BT-549 breast; HOP-62 NSCLC; HOP-92 NSCLC; K-562 leukemia; OVCAR-3 ovarian; OVCAR-5 ovarian; SK-MEL-2 melanoma; SK-MEL-5 melanoma; UACC-62 melanoma; SK-OV-3 ovarian.
Experiment in all cases: NCI-60 cell line screen, 48 h

As to `N[C@@H]1C[C@H](N)c2c(Cl)sc(Cl)c21`, the TGI in the assay with ACHN renal, with BT-549 breast, in the assay with HOP-62 NSCLC, in the assay on HOP-92 NSCLC, in the assay with K-562 leukemia and in the assay with OVCAR-3 ovarian was over 100 µM throughout. For the same molecule, the TGI with OVCAR-5 ovarian, in the assay with SK-MEL-2 melanoma, in the assay on SK-MEL-5 melanoma and in the assay with UACC-62 melanoma was over 100 µM each time.

Consider `COc1ccc(NC=O)c(C(O)CCNC(C)=O)c1` (stereo not given), for which the TGI in the assay on ACHN renal, in the assay on BT-549 breast, in the assay on HOP-92 NSCLC, with K-562 leukemia, in the assay with OVCAR-3 ovarian and in the assay on OVCAR-5 ovarian was over 100 µM in each case. For the same molecule, the TGI in the assay with SK-MEL-2 melanoma, in the assay with SK-MEL-5 melanoma, in the assay on SK-OV-3 ovarian and with UACC-62 melanoma was over 100 µM in each case.

With `CN(C)c1ccc(C2CC(=O)CC(c3ccc(N(C)C)cc3)C23C(=O)NC(=O)NC3=O)cc1` (stereo not given), the TGI with ACHN renal is over 25 µM; in the assay with BT-549 breast, over 25 µM; in the assay on HOP-62 NSCLC, over 25 µM; in the assay on HOP-92 NSCLC, 19 µM; with K-562 leukemia, over 25 µM; with OVCAR-3 ovarian, over 25 µM. Further, the TGI in the assay on OVCAR-5 ovarian, with SK-MEL-2 melanoma, with SK-MEL-5 melanoma and in the assay with UACC-62 melanoma was over 25 µM throughout.

Regarding `Nc1ncc2c(n1)-c1ccccc1OC2NC1CC1` (stereo not given), the TGI with ACHN renal, with BT-549 breast, with HOP-92 NSCLC, in the assay on OVCAR-3 ovarian, with OVCAR-5 ovarian and with SK-MEL-2 melanoma was over 100 µM in each case. Moreover, the TGI in the assay with SK-MEL-5 melanoma, in the assay with SK-OV-3 ovarian and in the assay on UACC-62 melanoma was over 100 µM in each case.

For `CC(=O)Nc1c(C)cc(OCC(=O)O)cc1C`, the TGI in the assay with ACHN renal, with BT-549 breast, in the assay with HOP-62 NSCLC, with HOP-92 NSCLC, in the assay with K-562 leukemia and with OVCAR-3 ovarian was over 100 µM throughout. Also, the TGI with OVCAR-5 ovarian, in the assay on SK-MEL-2 melanoma, with SK-MEL-5 melanoma, in the assay on SK-OV-3 ovarian and in the assay on UACC-62 melanoma was over 100 µM each time.

As to `COc1cc(C2c3cccc4cccc(c34)C3CCC(=O)N32)cc(O)c1O` (stereo not given), the TGI with ACHN renal is over 50 µM; in the assay on BT-549 breast it was over 50 µM; with HOP-62 NSCLC, over 50 µM; with HOP-92 NSCLC, over 50 µM; in the assay with K-562 leukemia, 40.3 µM; in the assay on OVCAR-3 ovarian, over 50 µM. Also, the TGI in the assay on OVCAR-5 ovarian, in the assay with SK-MEL-2 melanoma, in the assay with SK-OV-3 ovarian and in the assay with UACC-62 melanoma was over 50 µM each time.

For `CC(C)=CCC/C(C)=C/Cc1cc(/C=C/c2cc(O)c(CC=C(C)C)c(O)c2)cc(O)c1O`, the TGI is 3.19 µM in the assay on ACHN renal; 13.3 µM in the assay on BT-549 breast; 24.4 µM in the assay with HOP-62 NSCLC; 15.6 µM in the assay with HOP-92 NSCLC; 10.4 µM in the assay on K-562 leukemia; 5.83 µM in the assay on OVCAR-3 ovarian. Moreover, the TGI with OVCAR-5 ovarian stood at 15.4 µM; with SK-MEL-2 melanoma, 9.4 µM; in the assay on SK-MEL-5 melanoma it was 5.88 µM; in the assay with SK-OV-3 ovarian it was 21.5 µM; in the assay on UACC-62 melanoma, 9.88 µM.

Consider `CCC(=O)N(c1ccccc1)C(C)CN1CCC(O)(c2ccccc2)CC1` (stereo not given), for which the TGI in the assay on ACHN renal, with BT-549 breast, in the assay with HOP-62 NSCLC, in the assay with HOP-92 NSCLC, in the assay on K-562 leukemia and with OVCAR-3 ovarian was over 100 µM each time. The TGI in the assay on OVCAR-5 ovarian, in the assay on SK-MEL-2 melanoma, in the assay with SK-MEL-5 melanoma, with SK-OV-3 ovarian and in the assay with UACC-62 melanoma was over 100 µM throughout.

Consider `CN(C)c1ccc(C(C#N)N2CCCN(C(C#N)c3ccc(N(C)C)cc3)C2c2ccc(N(C)C)cc2)cc1` (stereo not given), for which the TGI in the assay on ACHN renal, in the assay with BT-549 breast, in the assay with HOP-62 NSCLC, in the assay with HOP-92 NSCLC, in the assay on K-562 leukemia and in the assay on OVCAR-3 ovarian was over 100 µM each time. In addition, the TGI in the assay on OVCAR-5 ovarian, in the assay on SK-MEL-2 melanoma, in the assay with SK-MEL-5 melanoma, with SK-OV-3 ovarian and in the assay with UACC-62 melanoma was over 100 µM in each case.

Consider `CCOC(=O)CNC(=O)C(CSC(=O)N(O)c1ccc(Br)cc1)NC(=O)CCC(N)C(=O)OCC` (stereo not given), for which the TGI in the assay on ACHN renal, in the assay on BT-549 breast, in the assay with HOP-62 NSCLC, in the assay with HOP-92 NSCLC, with K-562 leukemia and with OVCAR-3 ovarian was over 50 µM throughout. For the same molecule, the TGI in the assay on OVCAR-5 ovarian, in the assay on SK-MEL-2 melanoma, in the assay on SK-MEL-5 melanoma, in the assay with SK-OV-3 ovarian and in the assay with UACC-62 melanoma was over 50 µM each time.

As to `CCOP(=O)(CS(C)=O)O[C@@H]1C[C@H](C)CC[C@H]1C(C)C` (stereo not given in full), the TGI was 15.8 µM in the assay with ACHN renal; 17.3 µM with BT-549 breast; 21.4 µM with HOP-62 NSCLC; 16.9 µM with HOP-92 NSCLC; over 100 µM with K-562 leukemia; 15.7 µM in the assay with OVCAR-3 ovarian. Also, the TGI with OVCAR-5 ovarian was determined as 15.2 µM; in the assay with SK-MEL-2 melanoma, 12.8 µM; in the assay with SK-MEL-5 melanoma it was 6.85 µM; in the assay on SK-OV-3 ovarian, 19.9 µM; in the assay with UACC-62 melanoma, 7.08 µM.

`CSc1nc(C)cc(Nc2ccc(O)c(CN3CCCCC3)c2)n1`: the TGI in the assay on ACHN renal, in the assay on BT-549 breast, in the assay on HOP-62 NSCLC, with HOP-92 NSCLC, in the assay with K-562 leukemia and with OVCAR-3 ovarian was over 100 µM each time. Further, the TGI in the assay with OVCAR-5 ovarian, with SK-MEL-5 melanoma, in the assay with SK-OV-3 ovarian and in the assay with UACC-62 melanoma was over 100 µM each time.

For the molecule `N#Cc1c(-c2ccccc2)c(C#N)c(=O)n(NS(=O)(=O)c2ccccc2)c1O`, the TGI in the assay on ACHN renal, in the assay with BT-549 breast, with HOP-62 NSCLC, with HOP-92 NSCLC, in the assay with K-562 leukemia and in the assay on OVCAR-5 ovarian was over 100 µM each time. The TGI in the assay with SK-MEL-2 melanoma, with SK-MEL-5 melanoma, with SK-OV-3 ovarian and with UACC-62 melanoma was over 100 µM throughout.
